# Source: US4201843A, “Process for manufacturing tylosin derivatives” (Sanraku Ocean Co., Ltd., priority 1975, dated 1980)
# Assays:
# solubility in solvents = assay type: physicochemical
# Description: (§1) The physicochemical analysis and deterimations included elementary analysis, melting point, specific rotatory power, ultraviolet spectrum, infrared spectrum, magnetic nuclear resonance (NMR), C^13 -NMR, mass spectrum (chemical ionization), the release of organic acids under alkaline conditions (gas chromatographical detection), solubility in solvents, color development reaction, basicity of the compounds, appearance and crystalline form. The molecular weight was obtained as QM^+ (Quasi Molecular ion) by chemically-ionized mass spectra analysis.
# (§2) (2) the crystals obtained from the solvents in (13) were used for the tests in (1)-(12), and […]
# [1] = tested on: Staphylococcus aureus MS 8710; experiment: minimum growth-inhibitory concentration; assay type: cell-based; conditions: MS8710; Staphylococcus aureus MS 8710, drug resistant strain
# Method: (§3) The antimicrobial spectra of new tylosin derivatives of this invention are shown in Table 2 by listing the minimum growth inhibitory concentrations (MIC, mcg/ml). […] The toxicity of these compounds was tested in animals by intravenous administration, and the LD50 values in mice are more than 400 mg/kg with all compounds. In therapeutical experiments with mice manually infected by Staphilococcus aureus SMITH, the ED50 values were less than 50 mg/kg (p.o.) with all said tylosin derivatives.
# (§4) The strains marked * in Table 2 are the drug resistant strains isolated from patients, namely, Staphilococcus aureus MS-9610 which is resistant to penicillin, tetracycline, erythromycin, leucomycin, spiramycin, josamycin and tylosin, Staphilococcus aureus MS-8710 which is resistant to penicillin, tetracycline, erythromycin, leucomycin and tylosin, and Streptococcus pyogenes MH 771 which is resistant to erythromycin, oleandomycin, leucomycin and tylosin.
# [2] = tested on: Staphylococcus aureus MS 9610; experiment: minimum growth-inhibitory concentration; assay type: cell-based; conditions: MS9610; Staphylococcus aureus MS 9610, drug resistant strain
# Method: as §3, §4
# [3] = tested on: Staphylococcus aureus FAD209P; experiment: minimum growth-inhibitory concentration; assay type: cell-based; conditions: read-out: minimum growth-inhibitory concentration (MIC)
# Method: as §3
# [4] = tested on: Bacillus cereus ATCC 9634; experiment: minimum growth-inhibitory concentration; assay type: cell-based; conditions: ATCC9634
# Method: as §3
# [5] = tested on: Pseudomonas fluorescens NIHJB 254; experiment: minimum growth-inhibitory concentration; assay type: cell-based; conditions: NIHJB254
# Method: as §3
# [6] = tested on: Escherichia coli (National Institute of Health); experiment: minimum growth-inhibitory concentration; assay type: cell-based
# Method: as §3
# Sarcina lutea ATCC 9341 = experiment: minimum growth-inhibitory concentration; assay type: cell-based; conditions: Micrococcus luteus, ATCC9341
# Method: as §3
# [7] = tested on: Bacillus subtilis ATCC 6633; experiment: minimum growth-inhibitory concentration; assay type: cell-based; conditions: ATCC6633
# Method: as §3
# [8] = tested on: Candida tropicalis IAM 4924; experiment: minimum growth-inhibitory concentration; assay type: cell-based; conditions: IAM4924
# Method: as §3
# [9] = tested on: Mycobacterium smegmatis ATCC 607; experiment: minimum growth-inhibitory concentration; assay type: cell-based; conditions: Mycolicibacterium smegmatis, ATCC607
# Method: as §3
# [10] = tested on: Staphylococcus aureus SMITH; experiment: minimum growth-inhibitory concentration; assay type: cell-based
# Method: as §3
# [11] = tested on: Candida albicans IAM 4905; experiment: minimum growth-inhibitory concentration; assay type: cell-based; conditions: IAM4905
# Method: as §3
# [12] = tested on: Proteus morganii (The Institute for Infectious Diseases); experiment: minimum growth-inhibitory concentration; assay type: cell-based; conditions: Morganella morganii
# Method: as §3
# [13] = tested on: Bacillus megaterium NRRL B-938; experiment: minimum growth-inhibitory concentration; assay type: cell-based; conditions: Priestia megaterium, NRRLB938
# Method: as §3
# [14] = tested on: Corynebacterium bovis 1810; experiment: minimum growth-inhibitory concentration; assay type: cell-based
# Method: as §3
# Micrococcus flavus I = experiment: minimum growth-inhibitory concentration; assay type: cell-based
# Method: as §3
# [15] = basicity of the compounds (alkalinity); assay type: physicochemical
# Description: as §1, §2
# [16] = tested on: Streptococcus pyogenes MH 771; experiment: minimum growth-inhibitory concentration; assay type: cell-based; conditions: MH771, read-out: minimum growth-inhibitory concentration (MIC)
# Method: as §3
# (broth-dilution method)
# as §4
# drug resistant strains = experiment: antimicrobial activity against drug resistant strains; assay type: cell-based; conditions: strains marked * in Table 2
# Description: One of the particular advantages of the said tylosin derivatives over known macrolide antibiotics is their distinct antimicrobial activity against drug resistant bacteria.
# as §4
# [17] = parameters: species or system mice; conditions: mouse, in vivo, po, 100 mg/kg
# Method: Another phase of advantages of the said tylosin derivatives is their high blood levels in animals. When each of these compounds is orally administered to mice in a dose of 100 mg/kg, their concentrations in blood were measured to be 5-20 mcg/ml, a substantially high value compared to that of tylosin (<1 mcg/ml). […] Their concentrations in blood one hour after administration reached up to 15-20 mcg/ml.
# [18] = electrometric determination in dimethyl formamide-H2O=2:1 by volume; Japanese Patent (Kokoku) Showa No. 36-22649; cited from earlier work
Molecule,MIC [1],MIC [2],MIC [3],MIC [4],MIC [5],MIC [6],MIC (Sarcina lutea ATCC 9341),MIC [7],MIC [8],MIC [9],MIC [10],MIC [11],MIC [12],MIC [13],MIC [14],MIC (Micrococcus flavus I),MIC [16],further results
"CCCC(=O)OC1C(C)OC(OC2C(C)OC(OC3C(CC=O)CC(C)C(=O)/C=C/C(C)=C/C(COC4OC(C)C(O)C(OC)C4OC)C(CC)OC(=O)CC(O)C3C)C(O)C2N(C)C)CC1(C)O (stereo not shown) [4""-n-butyryltylosin]",62.5 µg/mL,> 250 µg/mL,0.25 µg/mL,0.98 µg/mL,> 250 µg/mL,125 µg/mL,0.25 µg/mL,0.49 µg/mL,> 250 µg/mL,3.91 µg/mL,0.25 µg/mL,> 250 µg/mL,> 250 µg/mL,0.49 µg/mL,0.98 µg/mL,0.49 µg/mL,15.6 µg/mL,"solubility in acidic water (solubility in solvents; acidic water): soluble; solubility in alkaline water (solubility in solvents; alkaline water): hardly soluble; solubility in lower alcohols, ketones, ethers, esters, benzene and toluene (solubility in solvents; e.g. ethanol, acetone, ethyl ether, ethyl acetate, benzene, toluene): soluble; solubility in n-hexane and petroleum ether (solubility in solvents; n-hexane and petroleum ether): hardly soluble; solubility in neutral water (solubility in solvents; neutral water): slightly soluble; alkalinity [15]: alkaline compounds; antimicrobial activity against a wide range of drug resistant strains (drug resistant strains): particularly strong antimicrobial activity"
CC[C@H]1OC(=O)C[C@@H](O)[C@H](C)[C@@H](O[C@@H]2O[C@H](C)[C@@H](O[C@H]3C[C@@](C)(O)[C@@H](O)[C@H](C)O3)[C@H](N(C)C)[C@H]2O)[C@@H](CC=O)C[C@@H](C)C(=O)/C=C/C(C)=C/[C@@H]1CO[C@@H]1O[C@H](C)[C@@H](O)[C@@H](OC)[C@H]1OC [tylosin],> 250 µg/mL,> 250 µg/mL,0.49 µg/mL,0.49 µg/mL,> 250 µg/mL,250 µg/mL,0.12 µg/mL,0.49 µg/mL,> 250 µg/mL,7.81 µg/mL,0.25 µg/mL,> 250 µg/mL,> 250 µg/mL,0.25 µg/mL,0.5 µg/mL,0.12 µg/mL,250 µg/mL,concentration in blood [17]: < 1 µg/mL
tylosin acetyl ester,,,,,,,,,,,,,,,,,,pk value [18]: about 5.1
